Laboratory results reported in US20130216615A1, “Pharmaceutical Compositions Containing Dimethyl Fumarate” (priority 2012, published 2013).
Structures can show the parent of a compound that is named as a salt.

Experiments:
[1] = human, in vivo
Description: (§1) A randomized, double-blind, placebo-controlled study in healthy adult volunteers was conducted in which a total of 56 subjects were randomized to receive 4 days' treatment with DMF 240 mg BID, DMF 240 mg TID, DMF 360 mg BID or placebo, with aspirin 325 mg or matching aspirin placebo administered 30 minutes before each DMF or DMF placebo dose. An additional 8 patients were assigned to a modified dosing group receiving DMF 120 mg or placebo 6 times daily (3 doses at hourly intervals in the morning and a further 3 doses at hourly intervals in the evening). There were 6 subjects per group, except for the modified dosing regimen, where an additional 2 subjects were assigned to placebo.
(§2) Flushing severity was assessed by 2 validated subject-reported measures, the global Flushing Severity Scale (GFSS) and the Flushing Severity Scale (FSS), which are adapted from the flushing scale described in Norquist J M, et al. Curr Med Res Opin 23:1547-1560 (2007). Both of these measures rate flushing severity on a scale of 0-10, where 0=no flushing, 1-3=mild flushing, 4-6=moderate flushing, 7-9=severe flushing, and 10=extreme flushing. The GFSS is a visual-analogue scale measuring redness, warmth, tingling and itching of the skin experienced over the preceding 24 h. Subjects completed the GFSS immediately before the first dose of study drug (0 h) on days 1 to 4, again at 0 h on day 5 and once more at follow-up on day 11. On the FSS, subjects rated their overall flushing and 4 items describing specific flushing symptoms (redness, warmth, tingling, itching) at the time of administration of the questionnaire. The FSS scale was administered at 16 time points over 12 h (Hours 0, 0.5, 1, 1.5, 2, 2.5, 3, 4, 5, 6, 7, 8, 9, 10, 11, 12) on days 1 to 4 and once on day 5 (24 h after the first day 4 dose) to assess the quality and intensity of subject-reported flushing symptoms in real time. Subjects rated 5 items relating only to the period since they last answered the questionnaire and/or received study drug.

[2] = Laser Doppler perfusion of facial skin during flushing; assay type: in vivo, human; conditions: aspirin pretreatment before DMF
Description: Laser Doppler perfusion was used as an exploratory quantitative measure of facial skin perfusion during flushing. This technique uses non-invasive imaging of superficial tissue blood perfusion, recorded as Blood Perfusion Units on a relative units scale. Laser Doppler perfusion was measured at the same 16 timepoints as the FSS.

[3] = Subject-reported flushing severity (GFSS, FSS); conditions: 325 mg non-enteric coated aspirin 30 minutes prior to DMF dosing, healthy volunteer study
Description: as §1, §2

[4] = PK of DMF with or without aspirin in healthy adult volunteers, plasma MMF; assay type: in vivo, human; conditions: aspirin 325 mg 30 minutes before each DMF dose
Description: The concentration of MMF was determined by high pressure liquid chromatography with tandem mass spectrometry, using […] as the internal standard. Further pharmacokinetic parameters were derived by non-compartmental analysis

Row | SMILES | flushing severity on the FSS [1] | mean GFSS score ([1]; 2 day) | magnitude of Doppler perfusion response [2] | occurrence and severity of flushing [3] | effect of aspirin pretreatment on MMF concentration-time profiles [4]
1 | COC(=O)/C=C/C(=O)OC [DMF, dimethyl fumarate] | mild to moderate | 1.5-3.5 | – | – | –
2 | CC(=O)Oc1ccccc1C(=O)O [aspirin] | – | – | decreased | reduce the occurrence and severity of flushing | no apparent effect
